Results on one compound are retold here after patent US11441126B2, “Platform for the induction and maintenance of ground state pluripotency” (Fate Therapeutics, Inc., priority 2015, dated 2022).

For the test, the system named is hiPSC clone FTi111. Put plainly: Post-thaw recovery of hiPSC clone in various culture environments. The test is classed as cell-based, human. To be noted: conventional culture with feeder cells.

As for `O=C(NCc1ccccc1)c1csc(Nc2ccncn2)n1` [Thiazovivin], the “recovery of hiPSC colonies after thaw” value is reported as “only recovered in the presence of Thiazovivin”.
